Results from patent US9233913B2, “Amino acid derivatives for the treatment of neuropathic pain” (priority 2009, dated 2016).
Like-named read-outs stand apart in the source and are kept apart here.

Assays:
[1] = tested on: metrazole-induced clonic convulsions and mortality; assay: Metrazole-induced convulsions model; settings: metrazole 100 mg/kg, 100% = score 9
[2] = Pharmacokinetic profile in dogs; assay type: in vivo; settings: one female Beagle dog
Method: The pharmacokinetic profile of Compound 18 is evaluated in one female Beagle dog. One single oral and one single IV dose of 25 mg/kg separated by a wash-out period are administered to the dog to get key preliminary information about the pharmacokinetics and oral bioavailability of Compound 18.

[3] = Pharmacokinetic profile in mice; assay type: in vivo; settings: mouse, plasma, read-out: Bioavailability (% F)
Method: Compounds are tested for pharmacokinetic profile, including oral bioavailability in mice using the following procedure. Bioavailability estimates are performed after administration of 100 mg/kg of Compound 6B and 50 mg/kg of Compound 18 either Intravenously (IV) or orally (PO). Four animals per time point, per mode of administration are used. At each specific time point following drug administration, a blood sample is collected terminally (under isoflurane anesthesia) via cardiac puncture from each the 4 animals. Samples are collected at pre-dose and at 5, 15, 30, and 60 minutes and at 2, 4, 6, 8, 14 and 24 hours post oral administration and at pre-dose and 2, 5, 15, 30, and 60 minutes and 2, 4, 8, 14 and 24 hours post intravenous administration. Blood samples are collected into tubes containing K3-EDTA as anticoagulant, kept on ice until centrifugation at 4° C. at a minimum speed of 3000 rpm (1620G) for 10 min. Plasma samples are harvested into polypropylene tubes, immediately placed on dry ice and stored at −80° C.
Compounds in mouse plasma are extracted using protein precipitation. Quantitation of the compounds in mouse plasma matrix is achieved using LC-MS detection. Sample concentration is calculated using a calibration curve. FIGS. 3A and 3B show mouse PK curves in log scale for Compounds 6B and 18 respectively. […]

[4] = tested on: Diet-Induced Obesity (DIO) mouse model; assay: Diet-Induced Obesity (DIO) mouse model: glycemia, insulin, body weight; assay type: in vivo; settings: DIO mice; 100 mg/kg BID oral gavage, 7 days
Method: The objective of this study is to determine the effect of the compounds of the invention, namely Compounds 6A, 6B and 18, glycemia, insulin and body weight gain in a Diet-Induced Obesity (DIO) mouse model. Results are compared with (2S,3R,4S)-4-hydroisoleucine (positive control) and vehicle (negative control).
C57BL/6 mice are tested at 17-18 weeks of age and fed a high fat diet (60% of calories from fat) for 8 weeks. Fasted glycemia and body weight values are used to randomize the mice into control and treatment groups (n=8). The animals are treated twice dally (BID) (once on 7th day) by oral gavage with 4-hydroxyisoleucine, Compounds 6A, 6B and 18 (100 mg per kg of body weight), and the control group receive vehicle (water) alone. The animals are treated for 7 days.
Oral glucose Tolerance Test (OGTT) is performed at 5 hours±30 minutes Post starvation (day 0 only) or Post AM test article administration (for day 7). Blood samples are collected via tail vein for glucose determination prior to glucose challenge (Pre-OGTT) and at 5, 10, 20, 30, 60, 90 and 120 minutes post-glucose administration. Glucose determination is perfomed using a hand held glucometer (Model OneTouch Ultra, LifeScan).
A second blood sample is also collected Pre-OGTT and at 5, 10, 60 and 120 minutes Post-OGTT for insulin determination. Insulin determination is done using an enzyme Immunoassay kit (Mecodia Ultrasensitive Mouse Insulin ELISA, ALPCO Diagnostics, Wndham, N.H.).
Body weight of the mice is measured at arrival, randomization, and on days 0, 3 and 7 of treatment. At the end of the study, the epididymal fat pads were isolated and weighed. Data are expressed as mean±SEM of body weight and mean±SEM of fat pad weight.

Gabapentin binding site [5] = molecular target: T1, Gabapentin binding site (Rattus norvegicus, UniProt P54290); settings: Method 1, rat brain membranes, 3H-gabapentin; for % inhibition 1 μM: compound 1 μM; for % inhibition 10 μM: compound 10 μM
T1 sequence (P54290 25-1091): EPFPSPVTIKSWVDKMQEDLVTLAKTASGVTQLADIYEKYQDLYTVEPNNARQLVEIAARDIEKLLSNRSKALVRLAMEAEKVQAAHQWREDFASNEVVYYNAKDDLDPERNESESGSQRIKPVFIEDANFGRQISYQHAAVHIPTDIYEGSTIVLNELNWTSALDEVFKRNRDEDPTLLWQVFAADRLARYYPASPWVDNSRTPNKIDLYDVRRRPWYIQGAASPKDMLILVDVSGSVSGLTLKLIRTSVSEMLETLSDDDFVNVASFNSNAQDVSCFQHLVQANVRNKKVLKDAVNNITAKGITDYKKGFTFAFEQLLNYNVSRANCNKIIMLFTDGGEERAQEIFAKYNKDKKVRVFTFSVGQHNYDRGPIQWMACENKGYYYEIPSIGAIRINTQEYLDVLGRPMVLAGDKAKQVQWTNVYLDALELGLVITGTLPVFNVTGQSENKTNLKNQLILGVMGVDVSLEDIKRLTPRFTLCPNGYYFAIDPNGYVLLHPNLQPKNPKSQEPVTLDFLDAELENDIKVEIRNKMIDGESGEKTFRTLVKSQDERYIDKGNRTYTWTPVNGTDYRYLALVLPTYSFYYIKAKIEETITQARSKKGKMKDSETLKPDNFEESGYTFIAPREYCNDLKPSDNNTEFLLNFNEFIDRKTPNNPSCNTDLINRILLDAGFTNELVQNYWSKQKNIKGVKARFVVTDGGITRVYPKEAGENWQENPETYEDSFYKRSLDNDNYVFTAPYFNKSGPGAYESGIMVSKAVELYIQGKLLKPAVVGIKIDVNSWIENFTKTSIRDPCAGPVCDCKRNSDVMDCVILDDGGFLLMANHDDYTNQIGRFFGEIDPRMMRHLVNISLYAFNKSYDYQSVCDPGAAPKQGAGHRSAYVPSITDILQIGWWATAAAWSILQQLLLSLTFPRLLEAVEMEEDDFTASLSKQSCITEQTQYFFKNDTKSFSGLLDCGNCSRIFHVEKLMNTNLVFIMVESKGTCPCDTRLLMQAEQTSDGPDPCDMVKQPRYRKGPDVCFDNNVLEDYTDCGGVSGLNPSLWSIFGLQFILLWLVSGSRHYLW
Method: Materials: Gabapentin is from TRC, [^3H]-Gabapentin is from GE Healthcare, and Meltilex A sheets (melt-on scintillator sheets) are from Perkin Elmer. Rat brain membranes are prepared in-house by conventional methods.
All solutions are prepared for the assay just before use, except for the membrane dilution. […] The final compound concentration in the assay is 1, 10 and 100 μM. The same is done with a solution not containing the test articles as control. The test plate is then incubated for 30 minutes at room temperature with agitation. The binding reaction is terminated using a Tomtec cell harvester machine (Mach III M-FP-1). A meltilex sheet is placed on the filtermat (harvest from the assay) and is allowed to melt in the oven at 65° C. for 1 to 4 min. The filter is inserted in the plastic pouch, which is sealed and allowed to cool for 1 h before counting with a Microbeta Trilux counter (Perkin Elmer).
Results are calculated using the count per minutes (CPM) obtained for each sample with the Trilux. The CPM obtained for the control diluent represents the 100% binding of ^3H-Gabapentin to membrane. The CPM obtained for the control gabapentin 100 μM represents the 0% binding. The % of binding for each compound is calculated by the formula: […]

Gabapentin binding site [6] = molecular target: T1, Gabapentin binding site; assay: [3H]-gabapentin binding assay, Method 2 (crude rat brain membranes); settings: 20 nM [3H]-gabapentin; for % inhibition 1 μM: compound 1 μM; for % inhibition 10 μM: compound 10 μM
Method: Membrane preparation: cortices from 5 rats were homogenized in a 0.32 M sucrose solution containing 10 mM HEPES/KOH. Suspensions were centrifuged for 10 minutes at 2500×g and the supernatants were centrifuged at 48000×g for 20 minutes. […] The final pellets were re-suspended in 10 mM HEPES/KOH. Protein concentration was determined using a BCA kit from Pierce (Rockford, Ill.). The quality of the preparation was assessed in a binding assay to gabapentin.
Binding assay: in 96-well plates, the selected compounds were incubated in 10 mM HEPES/KOH pH 7.4 at concentrations of 10 and 1 μM for 30 minutes at room temperature in the presence of 20 nM [^3H]-gabapentin and rat brain membranes (300 μg/mL of proteins). Radioactivity was assessed after filtration with the Tomtec cell harvester using a glass fiber filter A. Counts were obtained using the Microbeat Trilux counter.
[formula] wherein: [total binding]s is the total binding of [^3H]-gabapentin in the presence of the compound; [non-specific binding]c is the non specific binding of [^3H]-gabapentin in the presence of 100 μM cold gabapentin (c=control); and [total binding]c is the total binding of [^3H]-gabapentin alone.

Row | Compound | effect on glycemia compared to control [4] | % inhibition 1 μM (Gabapentin binding site [5]) [%] | % inhibition 10 μM (Gabapentin binding site [5]) [%] | % inhibition 1 μM (Gabapentin binding site [6]) | % inhibition 10 μM (Gabapentin binding site [6]) | also measured
1 | CN1C(=O)CN=C(c2ccccc2)c2cc(Cl)ccc21 [Diazepam, diazepam] | – | – | – | – | – | % Prevention of convulsions in mice ([1]; dose 1 mg/kg): 67%
2 | NCC1(CC(=O)O)CCCCC1 [Gabapentin] | – | – | – | – | – | % Prevention of convulsions in mice ([1]; dose 100 mg/kg): 67%
3 | N[C@H](C(=O)O)[C@@H]1CCCC[C@H]1O [Compound 18] | no effect | 87 | 90 | 21% (±3) | 6% (±1) | bioavailability ([2]; in vivo, 25 mg/kg oral and IV): 97%; absorption following oral administration ([2]; 25 mg/kg oral): rapidly and very well absorbed; first pass effect ([2]; 25 mg/kg oral): does not demonstrate any significant first pass effect; terminal half live ([2]; 25 mg/kg single dose): around 7 hours; bioavailability ([3]; 50 mg/kg IV or PO): 88.4%; % Prevention of convulsions in mice ([1]; dose 200 mg/kg): 67%
4 | N[C@@H](C[C@@H]1CCCO1)C(=O)O [Compound 8] | neutral or beneficial effect | – | – | 11% (±1) | 0% (±2) | bioavailability ([3]; 100 mg/kg IV or PO): ~100%; effect on insulin compared to control [4]: neutral or beneficial effect
5 | C[C@@H]([C@H](C)O)[C@H](N)C(=O)O [Compound 4-HO-Ile, (2S,3R,4S) 4-hydroxyisoleucine, reference compound] | – | 13 | 51 | – | – | –
6 | N[C@@H](C[C@H]1CCCO1)C(=O)O [Compound 7] | neutral or beneficial effect | – | – | 19% (±4) | 1% (±1) | effect on insulin compared to control [4]: neutral or beneficial effect
7 | N[C@@H](CC1CCCO1)C(=O)O (stereo partly shown) [Compound 6] | – | 82 | 92 | – | – | –
8 | N[C@@H](Cc1ccco1)C(=O)O [(2S)-Compound, (2S)-3-(2-furyl)alanine] | – | – | – | 61% (±8) | 16% (±3) | –
